In US6503943B1, “Platinum complex, its preparation and therapeutic application” (priority 1998, dated 2003):
Where “and” joins values, the source holds several entries; their conditions need not be identical. Equal values may be shown once.

Tests used:
[1] = system: mammal adenocarcinoma MC2111; assay: Antitumor effect at animals with solid form of mammal adenocarcinoma MC2111 (Example 9); assay type: in vivo, mice DBA1; conditions: for Tumor mass (%) of control / Tumor mass, Arithm. mean: 5th-13 day, tumor size 14th day, mass from regression
leucaemia L1210 [2] = assay: Antitumor effect at animals with leucaemia L1210, single administration (Example 4); assay type: in vivo, mice DBA2
leucaemia L1210 [3] = assay: Antitumor effect at animals with leucaemia L1210, continual regimen (Example 7); assay type: in vivo, mice DBA2; conditions: for Survival (in % of control) / Survival time, Geom. mean: 1th-9th day
leucaemia L1210 [4] = assay: Antitumor effect at animals with leucaemia L1210, intermitent administration 3x (Example 5); assay type: in vivo, mice DBA2; conditions: for Survival (in % of control) / Survival time, Geom. mean: 1st, 5th and 9th day
leucaemia L1210 [5] = assay: Antitumor effect at animals with leucaemia L1210, continual versus intermitent regimen (Example 6); assay type: in vivo, mice DBA2
Gardner lymphosarcoma = assay: Antitumor effect at animals with solid form of Gardner lymphosarcoma (Example 8); assay type: in vivo, mice C3H; conditions: for Tumor mass (%) of control / Tumor mass, Arithm. mean: 5th day, tumors weighed 14th day
[6] = system: ascitic form of Ehrlich tumor (ATE); assay: Antitumor effect at animals with ascitic form of Ehrlich tumor (ATE) (Example 10); assay type: in vivo, mice ICR; conditions: for Survival (in % of control) / Survival time, Geom. mean / Tumor mass (%) of control / Tumor mass, Arithm. mean: 1st-9th day; for Tumor mass (%) of control / Tumor mass, Arithm. mean: dissection 10th day
[7] = system: ascitic form of Ehrlich tumor (ATE); assay: Antitumor effect at animals with ascitic form of Ehrlich tumor (ATE) (Example 11);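 as to all read-outs here: half of each dose group killed on day 10, tumor mass taken as animal mass lost on ascites aspiration, ascitocrit by microhematocrit centrifuge, rest followed daily for survival versus reference group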; conditions: for Survival (in % of control) / Survival time, Geom. mean / Total ascitocrit (%) of control / Total ascitocrit (mass of cell fraction of a tumor), Arithm. mean / Tumor mass (%) of control / Tumor mass, Arithm. mean: 1th-9th day; for Total ascitocrit (%) of control / Total ascitocrit (mass of cell fraction of a tumor), Arithm. mean / Tumor mass (%) of control / Tumor mass, Arithm. mean: dissection 10th day
Description: After termination of application, one half of animals in each dosage group was destroyed at 10th day after inoculation in ether narcosis, the ascits were sucked out after laparotomy and the mass of a tumor at each of the animals was determined from the difference of mass before and after sucking out the ascit. Ascitocrit in ascitic liquor of single animals was determined on microhematocrit centrifuge in heparinized capillary tubes of 75 mm length. The value of “total ascitocrit”corresponding to a mass of cells in ascitic liquor has been determined from percentage of ascitocrit and mass of the tumor. Remaining animals were left for monitoring the survival time. In these animals, the survival time was monitored on daily basis. The dependence of the survival time value on the applied dose was evaluated in comparison with the reference group.
The single estimated time points as biological responses were evaluated by a test of equivalence of two mean values (Student's t-test). Geometric mean was calculated from single values of survival time, arithmetic means were calculated from single values of tumor mass and total ascitocrit. Difference between mean values was evaluated by a test of equivalence of two mean values (Student's t-test) under presumption of normal probability distribution of mass values as well as of total ascitocrit values and of logarithmic/normal distribution of temporal values, all under presumption of possible unknown disseminations. Those diferences in mean values, whose values of a test criterium exceeded the critical value at the 5% and 1% significance level were evaluated as statistically significant and highly statistically significant, respectively.
The optimum dosage has been calculated from values of survival time according to the proportional risk model of Cox (Carter et al., 1982). Parameters of Weinbull distribution and logarithmic transformation of introductory data were used for estimation of a basic and modified survival function from experimental data.

[8] = 9 mg/kg/day as printed, middle dose group between 36 and 9, p.o. 3x, 1,5,9th day
[9] = 9 mg/kg/day p.o. 3x, 1,5,9th day (lowest dose group)
[10] = 12 mg/kg/day p.o. 9x, 1-9th day
[11] = 36 mg/kg/day p.o. 3x, 1,5,9th day

In the case of `CC(=O)[O][Pt]([NH2])([Cl])([Cl])([NH]C1CCCCC1)[O]C(C)=O` [LA-2, af-bis(acetato)-b-ammin-cd-dichloro-e-(cyclohexylamine)platinum (IV) complex], the “Tumor mass (%) of control” value ([1]; 3 mg/kg/day p.o. 9x) is reported as 86%, the “Tumor mass, Arithm. mean” value ([1]; 3 mg/kg/day p.o. 9x) is reported as 4.00 g and the “Tumor mass (%) of control” value ([1]; 6 mg/kg/day p.o. 9x) is reported as 83%. The “Tumor mass, Arithm. mean” value ([1]; 6 mg/kg/day p.o. 9x) was 3.86 g, the “Tumor mass (%) of control” value ([1]; 12 mg/kg/day p.o. 9x) was 77% and the “Tumor mass, Arithm. mean” value ([1]; 12 mg/kg/day p.o. 9x) was 3.59 g. The “Survival (in % of control)” value ([1]; mouse, in vivo) was 100% and 115% and 113%, the “Survival time, Geom. mean” value ([1]; mouse, in vivo) was 21.7 days and 24.9 days and 24.5 days and the “Evaluation of antitumor effect, in words” value ([1]; p.o.×9 12, 6, 3 mg/kg/day, Platidiam 8 and 4 mg/kg s.c. once) was “No effect was observed”. The “Effect at the single oral dose of 10 mg/kg for IP-L 1210, in words” value (leucaemia L1210 [2]; 10 mg/kg (30 mg/m^2) single oral dose) was “no effect”, the “Antitumor effect (survival time versus control), in words” value (leucaemia L1210 [2]; mouse, in vivo) was “No effect has been proven” and the “Survival (in % of control)” value (leucaemia L1210 [2]; mouse, in vivo) was 63% and 85% and 81% and 94% and 99%. For the same compound, the “Survival time, Geom. mean” value (leucaemia L1210 [2]; mouse, in vivo) was 8.0 days and 10.7 days and 10.3 days and 11.9 days and 12.5 days, the “Survival (in % of control)” value (leucaemia L1210 [3]; 3 mg/kg/day p.o. 9x) was 214% and the “Survival time, Geom. mean” value (leucaemia L1210 [3]; 3 mg/kg/day p.o. 9x) was 48.1 days. For the same compound, the “Increase of survival time value in comparison with the control group” value (leucaemia L1210 [3]; 3 mg/kg/day p.o.×9) was 114%, the “Survival (in % of control)” value (leucaemia L1210 [3]; 6 mg/kg/day p.o. 9x) was 137% and the “Survival time, Geom. mean” value (leucaemia L1210 [3]; 6 mg/kg/day p.o. 9x) was 30.8 days. For the same compound, the “Survival (in % of control)” value (leucaemia L1210 [3]; 12 mg/kg/day p.o. 9x) was 108%, the “Survival time, Geom. mean” value (leucaemia L1210 [3]; 12 mg/kg/day p.o. 9x) was 24.4 days and the “Survival (in % of control)” value (leucaemia L1210 [4]; 2 mg/kg/day p.o. 3x) was greater than 129%. For the same compound, the “Survival time, Geom. mean” value (leucaemia L1210 [4]; 2 mg/kg/day p.o. 3x) was 20.2 days, the “Survival (in % of control)” value (leucaemia L1210 [4]; 4 mg/kg/day p.o. 3x) was 118% and the “Survival time, Geom. mean” value (leucaemia L1210 [4]; 4 mg/kg/day p.o. 3x) was 18.5 days. The “Survival (in % of control)” value (leucaemia L1210 [4]; 8 mg/kg/day p.o. 3x) was less than 148%, the “Survival time, Geom. mean” value (leucaemia L1210 [4]; 8 mg/kg/day p.o. 3x) was 23.2 days and the “Optimum dose as calculated according to Carter” value (leucaemia L1210 [4]; intermitent oral administration 3x) was 10.96 mg/kg/day p.o.×3. For the same compound, the “Survival (in % of control)” value (leucaemia L1210 [5]; 3 mg/kg/day p.o. 9x, 1-9th day) was 162%, the “Survival time, Geom. mean” value (leucaemia L1210 [5]; 3 mg/kg/day p.o. 9x, 1-9th day) was 18.7 days and the “Survival (in % of control)” value (leucaemia L1210 [5]; 6 mg/kg/day p.o. 9x, 1-9th day) was 173%. For the same compound, the “Survival time, Geom. mean” value (leucaemia L1210 [5]; 6 mg/kg/day p.o. 9x, 1-9th day) was 20.0 days, the “Survival (in % of control)” value (leucaemia L1210 [5]; [8]) was 160% and the “Survival time, Geom. mean” value (leucaemia L1210 [5]; [8]) was 18.6 days. The “Survival (in % of control)” value (leucaemia L1210 [5]; [9]) was 99%, the “Survival time, Geom. mean” value (leucaemia L1210 [5]; [9]) was 11.4 days and the “Survival (in % of control)” value (leucaemia L1210 [5]; [10]) was 99%. The “Survival time, Geom. mean” value (leucaemia L1210 [5]; [10]) was 11.5 days, the “Survival (in % of control)” value (leucaemia L1210 [5]; [11]) was 130% and the “Survival time, Geom. mean” value (leucaemia L1210 [5]; [11]) was 15.1 days. The “Evaluation of antitumor effect (survival time versus control), in words” value (leucaemia L1210 [5]; LA-12 6 mg/kg p.o.×9, Platidiam 8 and 4 mg/kg s.c.×1, LA-2 any of the dosage groups) was “antitumor uneffective”, the “Tumor mass (%) of control” value (Gardner lymphosarcoma; 2 mg/kg p.o. 1x) was 90% and the “Tumor mass, Arithm. mean” value (Gardner lymphosarcoma; 2 mg/kg p.o. 1x) was 5.61 g. The “Tumor mass (%) of control” value (Gardner lymphosarcoma; 8 mg/kg p.o. 1x) was 99%, the “Tumor mass, Arithm. mean” value (Gardner lymphosarcoma; 8 mg/kg p.o. 1x) was 6.19 g and the “Tumor mass (%) of control” value (Gardner lymphosarcoma; 32 mg/kg p.o. 1x) was 103%. The “Tumor mass, Arithm. mean” value (Gardner lymphosarcoma; 32 mg/kg p.o. 1x) was 6.44 g, the “Effect on average mass of a tumor, in words” value (Gardner lymphosarcoma; single p.o. 32, 8 and 2 mg/kg) was “No effect has been observed” and the “Survival (in % of control)” value ([6]; 3 mg/kg/day p.o. 9x) was 161%. For the same compound, the “Survival time, Geom. mean” value ([6]; 3 mg/kg/day p.o. 9x) was 18.4 days, the “Tumor mass (%) of control” value ([6]; 3 mg/kg/day p.o. 9x) was 119% and the “Tumor mass, Arithm. mean” value ([6]; 3 mg/kg/day p.o. 9x) was 3.17 g. The “Survival (in % of control)” value ([6]; 6 mg/kg/day p.o. 9x) was 156%, the “Survival time, Geom. mean” value ([6]; 6 mg/kg/day p.o. 9x) was 17.9 days and the “Tumor mass (%) of control” value ([6]; 6 mg/kg/day p.o. 9x) was 80%. For the same compound, the “Tumor mass, Arithm. mean” value ([6]; 6 mg/kg/day p.o. 9x) was 2.13 g, the “Survival (in % of control)” value ([6]; 12 mg/kg/day p.o. 9x) was 110% and the “Survival time, Geom. mean” value ([6]; 12 mg/kg/day p.o. 9x) was 12.6 days. For the same compound, the “Tumor mass (%) of control” value ([6]; 12 mg/kg/day p.o. 9x) was 79%, the “Tumor mass, Arithm. mean” value ([6]; 12 mg/kg/day p.o. 9x) was 2.10 g and the “Significance of mean survival time increase in comparison with untreated control (p≦0.01), in words” value ([6]; Tab. 7-2) was “do not”. The “Survival (in % of control)” value ([7]; 3 mg/kg/day p.o. 9x) was 114%, the “Survival time, Geom. mean” value ([7]; 3 mg/kg/day p.o. 9x) was 10.1 days and the “Total ascitocrit (%) of control” value ([7]; 3 mg/kg/day p.o. 9x) was 108%. The “Total ascitocrit (mass of cell fraction of a tumor), Arithm. mean” value ([7]; 3 mg/kg/day p.o. 9x) was 0.74 g, the “Tumor mass (%) of control” value ([7]; 3 mg/kg/day p.o. 9x) was 90% and the “Tumor mass, Arithm. mean” value ([7]; 3 mg/kg/day p.o. 9x) was 3.53 g. For the same compound, the “Survival time, Geom. mean” value ([7]; 6 mg/kg/day p.o. 9x) was 13.2 days, the “Total ascitocrit (%) of control” value ([7]; 6 mg/kg/day p.o. 9x) was 100% and the “Total ascitocrit (mass of cell fraction of a tumor), Arithm. mean” value ([7]; 6 mg/kg/day p.o. 9x) was 0.69 g. The “Tumor mass (%) of control” value ([7]; 6 mg/kg/day p.o. 9x) was 59%, the “Tumor mass, Arithm. mean” value ([7]; 6 mg/kg/day p.o. 9x) was 2.32 g and the “Survival (in % of control)” value ([7]; 12 mg/kg/day p.o. 9x) was 111%. For the same compound, the “Survival time, Geom. mean” value ([7]; 12 mg/kg/day p.o. 9x) was 9.9 days, the “Total ascitocrit (%) of control” value ([7]; 12 mg/kg/day p.o. 9x) was 95% and the “Total ascitocrit (mass of cell fraction of a tumor), Arithm. mean” value ([7]; 12 mg/kg/day p.o. 9x) was 0.65 g. The “Tumor mass (%) of control” value ([7]; 12 mg/kg/day p.o. 9x) was 70%, the “Tumor mass, Arithm. mean” value ([7]; 12 mg/kg/day p.o. 9x) was 2.74 g and the “Evaluation of antitumor effect (survival time versus control), in words” value ([7]; p.o.×9, Platidiam 8 and 4 mg/kg s.c.×1, Tab. 8.1) was “didnot increase the survival time statistically significant”.
